From publication PMC8297402, “Trifluoromethyl-substituted 3,5-bis(arylidene)-4-piperidones as potential anti-hepatoma and anti-inflammation agents by inhibiting NF-кB activation” (Journal of Enzyme Inhibition and Medicinal Chemistry, 2021)

How the values were obtained:
RAW264.7 cell = assay: MTT toxicity pre-experiment on RAW264.7 macrophagocyte; type: cell-based, mouse; settings: Mus musculus, RAW264.7, BAPs 5 μM, read-out: Survival rate RAW264.7 cell
Procedure: Lipopolysaccharide (LPS) is a key constituent of Gram-negative bacterial endotoxin, which is used to induce an inflammatory response in corresponding inflammatory cells. TNF-α and IL-6 are two kinds of representative pro-inflammatory factors, which produced by LPS-stimulated RAW264.7 macrophage. In our pre-experiments, the toxicity against RAW264.7 macrophagocyte for all title compounds was tested by the MTT assay, and the results were listed in Table 2. The survival rates were above 80% for all BAPs (4-30) at the concentration of 5.0 μM.

SMMC-7721 = assay: Modified MTT cytotoxicity assay, SMMC-7721; type: cell-based, Human; settings: for IC50: Homo sapiens, SMMC-7721, 24 h, MTT, 24 h incubation, three replicates; for SI (selectivity index) SMMC-7721: quotient of IC50 for normal (LO2) and malignant (SMMC-7721) cells
Procedure: (§1) The HepG2, SMMC-7721, and LO2 cell lines were maintained at 37 °C, 5% humidified CO2, and 95% atmosphere. Dulbecco's Modified Eagle (DMEM) medium containing 10% foetal bovine serum (FBS) was used for culturing the HepG2 cell line; meanwhile, Roswell Park Memorial Institute (RPMI) 1640 medium containing 10% FBS was used for culturing other cell lines (SMMC-7721, LO2). The HepG2, SMMC-7721 and LO2 cells were seeded in a 96-well plate in 200 μL of medium per well at a density of approximately 8 × 10^3 cells/well and cultured for 24 h, followed by incubation in an incubator of indicated compounds with successive concentrations (10, 5, 2.5, 1.25, 0.625, 0.3125 μg/mL) for 24 h. In the control group, cells were only cultured with culture media. After the media were removed, 20 μL of MTT (5 mg/mL) was added, then cells were incubated for 4 h at 37 °C. […] GraphPad Prism 5 software was used to calculate their IC50 values. Every IC50 value was the average of three replicates. Doxorubicin (DOX) and curcumin were used as positive controls.

[1] = Modified MTT cytotoxicity assay, normal heptical cell line HHL-5; settings: human, HHL-5 cells (normal hepatic cell line)
TNF-α = assay: ELISA of TNF-α release in LPS-stimulated RAW264.7 cells; type: cell-based, mouse; settings: Mus musculus, RAW264.7, BAPs (5 μM) + LPS (1 μg/mL), RAW264.7, ELISA; read-out: Inhibition rate TNF-α
Procedure: (§2) We tested by inhibiting the secretion of TNF-α and IL-6 to better evaluated the anti-inflammatory effects of BAPs. […] Under the stimulation of LPS (1.0 μg/mL) with RAW264.7 cells, the release of TNF-α and IL-6 was detected. Besides, after treated with BAPs (5.0 μM) and LPS (1.0 μg/mL), the release of TNF-α and IL-6 was measured with an ELISA kit (eBioScience, San Diego, California), respectively. In general terms, pyrrolidine dithiocarbamate (PDTC, 30 μM) or BAP (5.0 μM) was used to pretreat cells for 2 h, respectively. Then, LPS (1.0 μg/mL) was added and cells were incubated for another 22 h. Finally, the culture media were centrifuged at 1000 rpm for 10 min, and the expression levels of TNF-α and IL-6 were determined by ELISA.

A549 = assay: Modified MTT cytotoxicity assay, A549; settings: for IC50: Homo sapiens, A549, read-out: Cytotoxicity IC50 A549, MTT, non-small cell lung cancer cell line; for SI (selectivity index) A549: quotient of IC50 for normal (HHL-5) and malignant (A549) cells
Procedure: To further verify the anti-tumour activity, one human non-small cell lung cancer cell line (A549), one human ovarian cancer cell line (A2780), and one human normal heptical cell line (HHL-5) were screened by BAPs (4–30) using a modified MTT assay (Supporting Information). DOX and curcumin were selected as positive controls.
The optical density (OD) value of each well was measured on a
multi-well plate reader (TECAN, Mӓnnedorf, Switzerland ) at 570 nm.
Every IC 50 value was the average of three replicates.
Doxorubicin (DOX) and Curcumin were used as positive controls.

A2780 = assay: Modified MTT cytotoxicity assay, A2780; settings: for IC50: Homo sapiens, A2780, read-out: Cytotoxicity IC50 A2780, MTT, ovarian cancer cell line; for SI (selectivity index) A2780: quotient of IC50 for normal (HHL-5) and malignant (A2780) cells
IL-6 = assay: ELISA of IL-6 release in LPS-stimulated RAW264.7 cells; type: cell-based, mouse; settings: Mus musculus, RAW264.7, BAPs (5 μM) + LPS (1 μg/mL), RAW264.7, ELISA; read-out: Inhibition rate IL-6
Procedure: as §2

[2] = Modified MTT cytotoxicity assay, normal heptical cell line LO2; type: cell-based, human; settings: human, LO2 cells (normal hepatic cell line), 24 h incubation
Procedure: as §1

HepG2 = assay: Modified MTT cytotoxicity assay, HepG2; type: cell-based, Human; settings: for IC50: Homo sapiens, HepG2, 24 h, MTT, 24 h incubation, three replicates, read-out: Cytotoxicity IC50 HepG2; for SI (selectivity index) HepG2: quotient of IC50 for normal (LO2) and malignant (HepG2) cells
Procedure: as §1

in vitro = settings: human

melting point | IC50 (in vitro) | Compound | viability at 5 µM (RAW264.7 cell) | IC50 (SMMC-7721) | SI (selectivity index) SMMC-7721 (SMMC-7721) | IC50 [1] | inhibition at 5 µM (TNF-α) | IC50 (A549) | SI (selectivity index) A549 (A549) | IC50 (A2780) | SI (selectivity index) A2780 (A2780) | inhibition at 5 µM (IL-6) | IC50 at 24 h [2] | IC50 (HepG2) | SI (selectivity index) HepG2 (HepG2) | SI (selectivity), bound stated for A549 and A2780 together (A549; A549 and A2780 vs HHL-5)
151 to 153 °C | – | O=C1/C(=C/c2cccc(C(F)(F)F)c2)CN(S(=O)(=O)c2ccccc2)C/C1=C\c1cccc(C(F)(F)F)c1 [BAP 13] | 82.5 ± 1.3% | 5700 ± 100 nM | 1.8 | 2900 ± 200 nM | 56.3 ± 2.1% | 250 ± 10 nM | 11.6 | 160 ± 10 nM | 18.1 | 48.9 ± 2.9% | 10100 ± 400 nM | 3500 ± 100 nM | 3.1 | –
196 to 198 °C | – | O=C1/C(=C/c2cccc(C(F)(F)F)c2)CN(S(=O)(=O)c2ccc([N+](=O)[O-])cc2)C/C1=C\c1cccc(C(F)(F)F)c1 [BAP 15] | 81.9 ± 1.2% | 5000 ± 100 nM | 2.5 | 5200 ± 300 nM | 62.1 ± 0.7% | 130 ± 20 nM | 40.0 | 140 ± 20 nM | 37.1 | 60.8 ± 4.2% | 12600 ± 100 nM | 2700 ± 100 nM | 4.7 | –
135 to 137 °C | – | O=C1/C(=C/c2cccc(C(F)(F)F)c2)CN(S(=O)(=O)c2ccc(Br)cc2)C/C1=C\c1cccc(C(F)(F)F)c1 [BAP 19] | 81.9 ± 0.6% | 7600 ± 400 nM | 1.4 | 13600 ± 500 nM | 49.2 ± 3.7% | 120 ± 10 nM | 113.3 | 210 ± 30 nM | 64.8 | 56.3 ± 1.3% | 11000 ± 200 nM | 6500 ± 200 nM | 1.7 | –

Continued, molecule first:

Compound | melting point | IC50 (in vitro) | viability at 5 µM (RAW264.7 cell) | IC50 (SMMC-7721) | SI (selectivity index) SMMC-7721 (SMMC-7721) | IC50 [1] | inhibition at 5 µM (TNF-α) | IC50 (A549) | SI (selectivity index) A549 (A549) | IC50 (A2780) | SI (selectivity index) A2780 (A2780) | inhibition at 5 µM (IL-6) | IC50 at 24 h [2] | IC50 (HepG2) | SI (selectivity index) HepG2 (HepG2) | SI (selectivity), bound stated for A549 and A2780 together (A549; A549 and A2780 vs HHL-5)
O=C1/C(=C/c2ccc(C(F)(F)F)cc2)CN(S(=O)(=O)c2ccc(Cl)cc2)C/C1=C\c1ccc(C(F)(F)F)cc1 [BAP 27] | 220 to 222 °C | – | 86.4 ± 4.8% | 1800 ± 200 nM | 8.8 | 9100 ± 200 nM | 69.9 ± 2.7% | 140 ± 40 nM | 65.0 | 197 ± 50 nM | 46.2 | 67.3 ± 2.2% | 15800 ± 400 nM | 1400 ± 200 nM | 11.3 | –
COc1cccc2c1C(=O)c1c(O)c3c(c(O)c1C2=O)C[C@@](O)(C(=O)CO)C[C@@H]3O[C@H]1C[C@H](N)[C@H](O)[C@H](C)O1 [DOX, Doxorubicin, reference compound] | – | 12200 ± 400 nM | – | ~1700 nM | 5.2 | – | – | 290 ± 70 nM | 42.1 | 190 ± 10 nM | 64.2 | – | 8900 ± 500 nM | ~1300 nM | 6.8 | > 40
